According to US20090215857A1 (Pfizer Products Inc., priority 2005, published 2009):
Where a name gives a salt, the structure may show the parent alone.

Tests used:
[1] = target: T1, human norepinephrine transporter (Homo sapiens, UniProt P23975); test: hNET receptor binding ([125I]-RTI-55 radioligand); settings: membranes of HEK-293 cells transfected with human norepinephrine transporter cDNA; 50 pM [125I]-RTI-55; IC50 converted by Cheng-Prusoff; read-out: NET Ki
T1 construct: expressed in transfected cells; host or cells: HEK-293
T1 sequence (P23975 whole entry): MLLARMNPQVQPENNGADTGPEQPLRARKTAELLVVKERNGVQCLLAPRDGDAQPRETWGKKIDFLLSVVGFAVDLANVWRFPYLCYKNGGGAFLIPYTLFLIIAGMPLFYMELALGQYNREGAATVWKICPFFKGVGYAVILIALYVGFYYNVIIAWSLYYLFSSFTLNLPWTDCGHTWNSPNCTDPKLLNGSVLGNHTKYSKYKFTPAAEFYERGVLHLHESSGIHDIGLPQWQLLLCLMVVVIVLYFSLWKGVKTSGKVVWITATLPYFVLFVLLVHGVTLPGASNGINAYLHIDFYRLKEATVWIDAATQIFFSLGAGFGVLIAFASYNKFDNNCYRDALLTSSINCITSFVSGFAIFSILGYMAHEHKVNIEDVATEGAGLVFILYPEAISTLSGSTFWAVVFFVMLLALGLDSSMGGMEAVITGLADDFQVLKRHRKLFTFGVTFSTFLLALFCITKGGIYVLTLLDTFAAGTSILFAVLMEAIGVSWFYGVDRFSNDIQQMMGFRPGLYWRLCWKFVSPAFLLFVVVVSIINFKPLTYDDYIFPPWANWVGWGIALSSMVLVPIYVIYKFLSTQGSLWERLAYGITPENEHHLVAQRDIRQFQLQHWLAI
In short: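 Membranes from HEK-293 cells expressing human NET were incubated 90 min at room temperature with 50 pM [125I]-RTI-55 and test compound (10^−5M to 10^−12M) in Krebs-HEPES, pH 7.4.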

[2] = target: T2, human serotonin transporter (Homo sapiens, UniProt P31645); test: hSERT receptor binding ([125I]-RTI-55 radioligand); settings: membranes of HEK-293 cells transfected with human serotonin transporter cDNA; 50 pM [125I]-RTI-55; IC50 converted by Cheng-Prusoff; read-out: SERT Ki
T2 construct: expressed in transfected cells; host or cells: HEK-293
T2 sequence (P31645 whole entry): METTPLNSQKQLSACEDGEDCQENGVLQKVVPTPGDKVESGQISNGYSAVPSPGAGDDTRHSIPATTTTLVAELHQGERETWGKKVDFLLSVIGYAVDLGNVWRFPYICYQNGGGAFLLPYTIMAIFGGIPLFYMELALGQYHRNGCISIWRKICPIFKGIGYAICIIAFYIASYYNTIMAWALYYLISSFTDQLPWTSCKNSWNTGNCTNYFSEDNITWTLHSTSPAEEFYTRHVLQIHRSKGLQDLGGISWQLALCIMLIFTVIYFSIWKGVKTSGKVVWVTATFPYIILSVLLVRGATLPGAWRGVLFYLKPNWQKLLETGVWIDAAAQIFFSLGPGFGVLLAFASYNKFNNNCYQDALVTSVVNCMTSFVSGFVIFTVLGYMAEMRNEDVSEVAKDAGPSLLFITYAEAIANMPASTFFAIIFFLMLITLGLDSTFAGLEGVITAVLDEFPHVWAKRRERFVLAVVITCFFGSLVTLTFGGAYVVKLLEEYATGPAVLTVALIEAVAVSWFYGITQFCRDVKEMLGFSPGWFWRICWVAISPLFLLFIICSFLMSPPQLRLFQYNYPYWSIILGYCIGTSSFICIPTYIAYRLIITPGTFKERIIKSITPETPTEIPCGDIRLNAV
In short: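 HEK-293 membranes expressing transfected human transporter were incubated with 50 pM [125I]-RTI-55 and test compound (10^−5 to 10^−12 M) in Krebs-HEPES pH 7.4 for 90 min at RT.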

[3] = tested on: capsaicin-induced mechanical allodynia; test: rat model of capsaicin-induced mechanical allodynia; assay type: in vivo; settings: male Sprague-Dawley rats; 10 mg/kg subcutaneously; PWT 1 hour after single dose; mean of eight animals, normalized for vehicle
Experimental: Compounds of the present invention may be assayed for their ability to alleviate capsaicin-induced mechanical allodynia in a rat (e.g., Sluka (2002) J of Neuroscience, 22(13): 5687-5693). For example, a rat model of capsaicin-induced mechanical allodynia was carried out as follows:
On day 0, male Sprague-Dawley rats (˜150 g) in the dark cycle were placed in suspended wire-bottom cages and allowed to acclimate for 0.5 hour in a darkened, quiet room. The day 0 paw withdrawal threshold (PWT) was determined on the left hind paw by Von Frey hair assessment using the Dixon up and down method. After assessment, the plantar muscle of the right hind paw was injected with 100 μl capsaicin (0.25% (w/v) in 10% ethanol, 10% Tween 80, in sterile saline). On day 6 the PWT of the left hind paw (contralateral from injection site) was determined for each animal. Animals from the day 6 prereads with PWT ≦11.7 g were considered allodynic responders and were regrouped so that each cage had similar mean PWT values. On day 7, responders were dosed subcutaneously with 10 mg compound/kg body weight, or with vehicle alone. The vehicle was phosphate buffered saline containing 2% Cremophor® EL (BASF). The contralateral PWT values were determined at 1 hour after the single dose, with the investigator blinded to the dosing scheme.
For each animal, the day 6 PWT value was subtracted from the 1 hour PWT value to give a delta PWT value that represents the change in PWT due to the 1 hour drug treatment. In addition, the day 6 PWT was subtracted from the day 0 PWT to give the baseline window of allodynia present in each animal.
The mean percent Inhibition of allodynia values (for eight animals assayed for each compound)+/−the standard error of the mean (SEM) are shown in Table 15.

| Ki [1] | Ki [2] | SMILES | % INHIBITION +/− SEM (inhibition of allodynia) [3] |
| --- | --- | --- | --- |
| 0.0129 µM | 0.0656 µM | Fc1cccc(-c2ccccc2CO[C@H]2CCNC2)c1F.O=C(O)/C=C/C(=O)O [Example A-6, (S)-3-(2′,3′-Difluoro-biphenyl-2-ylmethoxy)-pyrrolidine fumarate] | 66.20 +/− 7.8% |
| 1.02 µM | 5.65 µM | Fc1ccc(-c2ncccc2CO[C@H]2CCNC2)c(F)c1 [Example B-1, (S)-2-(2,4-Difluoro-phenyl)-3-(pyrrolidin-3-yloxymethyl)-pyridine fumarate] | – |
| 1.52 µM | 0.577 µM | COc1cc(-c2ccc(F)cc2CO[C@H]2CCNC2)cc(OC)c1OC [Example D-105] | – |
| 0.036 µM | 0.0447 µM | Fc1cccc(-c2ccc(F)cc2CO[C@H]2CCNC2)c1 [Example D-80, (S)-3-(4,3′-Difluoro-biphenyl-2-ylmethoxy)-pyrrolidine] | – |
| 7.4 µM | 2.73 µM | c1ccc(-c2cnc3[nH]ccc3c2)c(CO[C@H]2CCNC2)c1 [Example D-124, (S)-5-[2-(Pyrrolidin-3-yloxymethyl)-phenyl]-1H-pyrrolo[2,3-b]pyridine] | – |
| 1.16 µM | 1.24 µM | COc1ccc(OC)c(-c2ccc(F)cc2CO[C@H]2CCNC2)c1 [Example D-68, (S)-3-(4-Fluoro-2′,5′-dimethoxy-biphenyl-2-ylmethoxy)-pyrrolidine] | – |
| 0.0158 µM | 0.102 µM | Fc1ccc(-c2cc(F)ccc2CO[C@H]2CCNC2)c(F)c1 [Example A-23, (S)-(5,2′,4′-Trifluoro-biphenyl-2-ylmethoxy)-pyrrolidine hydrochloride] | – |
| 0.23 µM | 1.26 µM | COc1ccccc1-c1ccccc1CO[C@H]1CCNC1 [Example D-24, (S)-3-(2′-Methoxy-biphenyl-2-ylmethoxy)-pyrrolidine] | – |
| 1.2 µM | 1.32 µM | N#Cc1ccc(-c2ccc(F)cc2CO[C@H]2CCNC2)cc1 [Example D-110, (S)-4′-Fluoro-2′-(pyrrolidin-3-yloxymethyl)-biphenyl-4-carbonitrile] | – |
| 4.12 µM | 0.906 µM | CC(=O)c1ccc(-c2ccccc2CO[C@H]2CCNC2)cc1 [Example D-47, (S)-1-[2′-(Pyrrolidin-3-yloxymethyl)-biphenyl-4-yl]-ethanone] | – |
| 1.28 µM | 0.345 µM | CC(=O)c1cccc(-c2ccccc2CO[C@H]2CCNC2)c1 [Example D-41] | – |
| 0.0438 µM | 0.0216 µM | Clc1cccc(-c2ccccc2CO[C@H]2CCNC2)c1 [Example D-13, (S)-3-(3′-Chloro-biphenyl-2-ylmethoxy)-pyrrolidine] | – |
| ≥ 10 µM | ≥ 10 µM | CS(=O)(=O)c1ccc(-c2ccc(F)cc2CO[C@H]2CCNC2)cc1 [Example D-102, (S)-3-(4-Fluoro-4′-methanesulfonyl-biphenyl-2-methoxy)-pyrrolidine] | – |
| 0.0463 µM | 0.142 µM | Fc1cc(CO[C@H]2CCNC2)c(-c2cccc(F)c2F)cc1F [Example A-31, (3S)-3-[(2′,3′,4,5-tetrafluorobiphenyl-2-yl)methoxy]pyrrolidine fumarate] | – |
| 1.19 µM | 0.0393 µM | OCc1cccc(-c2ccccc2CO[C@H]2CCNC2)c1 [Example D-38, (S)-[2′-(Pyrrolidin-3-yloxymethyl)-biphenyl-3-yl]-methanol] | – |
| 0.113 µM | 0.431 µM | COc1ccc(-c2ccccc2CO[C@H]2CCNC2)cc1F [Example D-21, (S)-3-(3′-Fluoro-4′-methoxy-biphenyl-2-ylmethoxy)-pyrrolidine] | – |
| 0.0113 µM | 0.012 µM | Fc1ccc(-c2ccccc2CO[C@H]2CCNC2)cc1F [Example A-5, (S)-3-(3′-4′-Difluoro-biphenyl-2-ylmethyloxy)-pyrrolidine hydrochloride] | – |
| 0.336 µM | 1.12 µM | N#Cc1cccc(-c2cc(F)ccc2F)c1CO[C@H]1CCNC1 [Example E-1, (S)-2′,5′-Difluoro-2-(pyrrolidin-3-yloxymethyl)-biphenyl-3-carbonitrile fumarate] | – |
| 0.31 µM | 1.2 µM | Fc1ccc(-c2ncccc2CO[C@H]2CCNC2)cc1F [Example B-3, (S)-2-(3,4-Difluoro-phenyl)-3-(pyrrolidin-3-yloxymethyl)-pyridine fumarate] | – |

| Ki [1] | Ki [2] | SMILES | % INHIBITION +/− SEM (inhibition of allodynia) [3] |
| --- | --- | --- | --- |
| 0.0228 µM | 0.116 µM | COc1ccc(-c2ccccc2CO[C@H]2CCNC2)cc1C [Example A-10, (S)-3-(4′-Methoxy-3′-methyl-biphenyl-2-ylmethoxy)-pyrrolidine fumarate] | – |
| ≥ 10 µM | ≥ 10 µM | N#Cc1cccc(-c2ccccc2CO[C@H]2CCNC2)c1 [Example D-53] | – |
| 0.108 µM | 0.346 µM | Clc1ccccc1-c1ccccc1CO[C@H]1CCNC1 [Example D-19, (S)-3-(2′-Chloro-biphenyl-2-ylmethoxy)-pyrrolidine] | – |
| 0.706 µM | 0.324 µM | CCOc1ccc(-c2ccc(F)cc2CO[C@H]2CCNC2)cc1 [Example D-85, (S)-3-(4′-Ethoxy-4-fluoro-biphenyl-2-ylmethoxy)-pyrrolidine] | – |
| ≥ 10 µM | 2.16 µM | NC(=O)c1cccc(-c2ccc(F)cc2CO[C@H]2CCNC2)c1 [Example D-117, (S)-4′-Fluoro-2′-(pyrrolidin-3-yloxymethyl)-biphenyl-3-carboxylic acid amide] | – |
| 3.83 µM | 0.386 µM | CC(C)Oc1ccc(-c2ccc(F)cc2CO[C@H]2CCNC2)cc1 [Example D-107, (S)-3-(4-Fluoro-4′-isopropoxy-biphenyl-2-ylmethoxy)-pyrrolidine] | – |
| 1 µM | 5.65 µM | FC(F)(F)Oc1ccccc1-c1ccccc1CO[C@H]1CCNC1 [Example D-37, (S)-3-(2′-Trifluoromethoxy-biphenyl-2-ylmethoxy)-pyrrolidine] | – |
| 0.301 µM | 1.1 µM | COc1ccc(-c2ccccc2CO[C@H]2CCNC2)cc1 [Example D-28, (S)-3-(4′-Methoxy-biphenyl-2-ylmethoxy)-pyrrolidine] | – |
| 0.0366 µM | 0.423 µM | Cc1ccc(-c2ccc(F)cc2CO[C@H]2CCNC2)cc1 [Example D-63, (S)-3-(4-Fluoro-4′-methyl-biphenyl-2-ylmethoxy)-pyrrolidine] | – |
| 0.0473 µM | 0.0151 µM | Fc1ccc(-c2ccccc2CO[C@H]2CCNC2)cc1Cl [Example D-14, (S)-3-(3′-Chloro-4′-fluoro-biphenyl-2-ylmethoxy)-pyrrolidine] | – |
| 0.102 µM | 0.0884 µM | Cc1cc(-c2ccc(F)cc2CO[C@H]2CCNC2)ccc1F [Example D-94, (S)-3-(4,4′-Difluoro-3′-methyl-biphenyl-2-ylmethoxy)-pyrrolidine] | – |
| ≥ 10 µM | 3.56 µM | Clc1ncccc1-c1ccccc1CO[C@H]1CCNC1 [Example D-118, (S)-2-Chloro-3-[2-(pyrrolidin-3-yloxymethyl)-phenyl]-pyridine] | – |
| 0.963 µM | 2.73 µM | CC(C)Oc1ncccc1-c1ccccc1CO[C@H]1CCNC1 [Example D-119, (S)-2-Isopropoxy-3-[2-(pyrrolidin-3-yloxymethyl)-phenyl]-pyridine] | – |
| 0.598 µM | 0.106 µM | Fc1ccc(-c2cccc(C(F)(F)F)c2)c(CO[C@H]2CCNC2)c1 [Example D-75, (S)-3-(4-Fluoro-3′-trifluoromethyl-biphenyl-2-ylmethoxy)-pyrrolidine] | – |
| 0.404 µM | 0.486 µM | COc1ccc(-c2ccc(F)cc2CO[C@H]2CCNC2)cc1F [Example D-100, (S)-3-(4,3′-Difluoro-4′-methoxy-biphenyl-2-ylmethoxy)-pyrrolidine] | – |
| 1.29 µM | 0.656 µM | COc1ccc(F)cc1-c1ccc(F)cc1CO[C@H]1CCNC1 [Example D-64, (S)-3-(4,5′-Difluoro-2′-methoxy-biphenyl-2-ylmethoxy)-pyrroldine] | – |
| 3.34 µM | 0.0124 µM | COc1ccc(Cl)cc1-c1ccccc1CO[C@H]1CCNC1 [Example D-44, (S)-3-(5′-Chloro-2′-methoxy-biphenyl-2-ylmethoxy)-pyrrolidine] | – |
| 0.0219 µM | 0.208 µM | Fc1ccc(F)c(-c2ccccc2CO[C@H]2CCNC2)c1 [Example D-8, (S)-3-(2′,5′-Difluoro-biphenyl-2-ylmethoxy)-pyrrolidine] | – |
